Measured values published in article PMC9225965 (Bioorganic & Medicinal Chemistry Letters, 2022).

Tests used:
SARS-CoV-2 M^pro = SARS-CoV-2 M^pro (Severe acute respiratory syndrome coronavirus 2, UniProt P0DTD1); experiment: biochemical; settings: for inhibition at 50 µM: read-out: M^pro inhibition
SARS-CoV-2 main protease = settings: read-out: reported IC50; similar FRET-based assays; cited from earlier work

## O=C(CSc1nc2cc(Cl)ccc2n1Cc1ccccc1)N1CCNC1=O [Compound 8]
SARS-CoV-2 M^pro; IC50 experiment repeated with 0.02 % Triton-X in reaction buffer
  activity in the presence of Triton-X (aggregation control): not attenuated
SARS-CoV-2 M^pro
  inhibition at 50 µM: > 50%

## COCCn1c(C(=O)NCC(O)c2ccccc2)nc2ccccc2c1=O (stereo not shown) [Compound 10]
SARS-CoV-2 M^pro
  inhibition at 50 µM: > 50%
